IC50 data for 32 molecules are collected here from patent US20090042964A1, “AMINO-5-[SUBSTITUTED-4-(DIFLUOROMETHOXY)PHENYL]-5-PHENYLIMIDAZOLONE COMPOUNDS AS BETA-SECRETASE INHIBITORS” (Wyeth, priority 2007, published 2009).

This assay has as its target human BACE1 (Homo sapiens, UniProt P56817). The assay can be described thus: Fluorescent kinetic assay, evaluation of BACE1 binding affinity of test compounds. Format: biochemical. As to conditions: 10 nM human BACE1, 25 μM substrate WABC-6, pH 4.5, room temperature. The method, boiled down: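 Kinetic fluorescence assay: enzyme added last to inhibitor and substrate mix, reading started immediately; substrate at 100 μM working dilution (25 μL in 100 μL total). Buffer 66.7 mM Na-acetate pH 4.5 with 0.0667% CHAPS for inhibitor and enzyme dilutions; enzyme stock quantified at 280 nm.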

Where two headings read alike, the source gives them in different places.

Chain of human BACE1 (P56817 46-501): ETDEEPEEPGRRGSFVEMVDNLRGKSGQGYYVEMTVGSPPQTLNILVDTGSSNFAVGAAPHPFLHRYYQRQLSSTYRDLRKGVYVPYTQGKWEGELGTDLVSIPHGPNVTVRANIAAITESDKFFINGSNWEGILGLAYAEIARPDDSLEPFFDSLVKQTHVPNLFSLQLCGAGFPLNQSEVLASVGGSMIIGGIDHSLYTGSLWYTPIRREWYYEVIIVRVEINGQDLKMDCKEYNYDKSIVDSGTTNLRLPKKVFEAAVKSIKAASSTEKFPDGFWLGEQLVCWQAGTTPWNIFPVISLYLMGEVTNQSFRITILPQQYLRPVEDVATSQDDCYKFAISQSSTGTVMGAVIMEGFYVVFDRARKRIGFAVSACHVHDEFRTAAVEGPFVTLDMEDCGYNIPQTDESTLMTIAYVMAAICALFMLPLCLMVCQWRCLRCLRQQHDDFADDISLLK

Usually IC50 stands for the point on the concentration scale where inhibition reaches its midpoint. As to `COc1cc(C2(c3ccccc3)N=C(N)N(C)C2=O)ccc1OC(F)F` (centres unmarked) [Example 15, 2-Amino-5-[4-(difluoromethoxy)-3-methoxyphenyl]-3-methyl-5-phenyl-3,5-dihydro-4H-imidazol-4-one], where the note is “BACE1 IC50 μM”, the IC50 fell in the range of 0.11 to 1 µM. As to `CN1C(=O)C(c2ccc(OC(F)F)c(Cl)c2)(c2ccc(F)c(OCCCF)c2)N=C1N` (centres unmarked) [Example 98, 2-Amino-5-[3-chloro-4-(difluoromethoxy)phenyl]-5-[4-fluoro-3-(3-fluoropropoxy)phenyl]-3-methyl-3,5-dihydro-4H-imidazol-4-one], the IC50 (read-out: BACE1 IC50) was less than 0.1 µM.

On to `COCC#Cc1cccc([C@]2(c3ccc(OC(F)F)c(C4CC4)c3)N=C(N)N(C)C2=O)c1` (single isomer, unassigned) [Example 182], for which the concentration for half-maximal inhibition (IC50) (read-out: BACE1 IC50) is 0.11 to 1 µM. Same read-out and setting: the result for `CN1C(=O)[C@@](c2cccc(C#CCF)c2)(c2ccc(OC(F)F)c(C3CC3)c2)N=C1N` [Example 212, (5R)-2-amino-5-[3-cyclopropyl-4-(difluoromethoxy)phenyl]-5-[3-(3-fluoroprop-1-yn-1-yl)phenyl]-3-methyl-3,5-dihydro-4H-imidazol-4-one] reads more than 1 µM. Consider `Cc1cc(C2(c3ccc(F)c(C#CC(C)C)c3)N=C(N)N(C)C2=O)ccc1OC(F)F` (centres unmarked) [Example 48, 2-Amino-5-[4-(difluoromethoxy)-3-methylphenyl]-5-[4-fluoro-3-(3-methylbut-1-yn-1-yl)phenyl]-3-methyl-3,5-dihydro-4H-imidazol-4-one], for which the IC50 (read-out: BACE1 IC50) is less than 0.1 µM. The same measure, in the same setting: the result for `Cc1cc([C@@]2(c3ccc(F)c(OCCF)c3)N=C(N)N(C)C2=O)ccc1OC(F)F` [Example 112, (5S)-2-Amino-5-[4-(difluoromethoxy)-3-methylphenyl]-5-[4-fluoro-3-(2-fluoroethoxy)phenyl]-3-methyl-3,5-dihydro-4H-imidazol-4-one] reads more than 1 µM. Regarding `Cc1cc(C2(c3ccc(F)cc3)N=C(N)N(C)C2=O)ccc1OC(F)F` (centres unmarked) [Example 3, 2-Amino-4-(4-(difluoromethoxy)-3-methylphenyl)-4-(4-fluorophenyl)-1-methyl-1H-imidazol-5(4H)-one], under “read-out: BACE1 IC50”, the IC50 is 0.11 to 1 µM. For the molecule `CCc1cc([C@@]2(c3ccccc3)N=C(N)N(C)C2=O)ccc1OC(F)F` [Example 24, (5R)-2-Amino-4-[4-(difluoromethoxy)-3-ethylphenyl]-1-methyl-4-phenyl-1H-imidazol-5(4H)-one], the IC50 (BACE1 IC50 μM) is more than 1 µM.

As for `C/C=C/c1cccc(C2(c3ccc(OC(F)F)c(Cl)c3)N=C(N)N(C)C2=O)c1` (centres unmarked) [Example 65, 2-Amino-5-[3-chloro-4-(difluoromethoxy)phenyl]-3-methyl-5-[((E)-3-prop-1-enyl)phenyl]-3,5-dihydro-4H-imidazol-4-one], the IC50 (read-out: BACE1 IC50) is less than 0.1 µM.

Take `CN1C(=O)C(c2ccccc2)(c2ccc(OC(F)F)c(CCF)c2)N=C1N` (centres unmarked) [Example 74, 2-amino-5-[4-(difluoromethoxy)-3-(2-fluoroethyl)phenyl]-3-methyl-5-phenyl-3,5-dihydro-4H-imidazol-4-one]: the IC50 (read-out: BACE1 IC50) fell in the range of 0.11 to 1 µM. The same measure, in the same setting: the result for `CC(C)c1cc(C2(c3ccccc3)N=C(N)N(C)C2=O)ccc1OC(F)F` (stereo in doubt) [Example 139, (5S)-2-Amino-5-[4-(difluoromethoxy)-3-isopropylphenyl]-3-methyl-5-phenyl-3,5-dihydro-4H-imidazol-4-one] reads more than 1 µM; that for `CN1C(=O)C(c2ccc(F)c(OCC(F)F)c2)(c2ccc(OC(F)F)c(C3CC3)c2)N=C1N` (centres unmarked) [Example 123, 2-Amino-5-[3-cyclopropyl-4-(difluoromethoxy)phenyl]-5-[3-(2,2-difluoroethoxy)-4-fluorophenyl]-3-methyl-3,5-dihydro-4H-imidazol-4-one], less than 0.1 µM. On the same count and under the same terms, for `CCc1cc([C@@]2(c3cccc(C#CCF)c3)N=C(N)N(C)C2=O)ccc1OC(F)F` [Example 160, (5R)-2-Amino-5-[4-(difluoromethoxy)-3-ethylphenyl]-5-[3-(3-fluoroprop-1-yn-1-yl)phenyl]-3-methyl-3,5-dihydro-4H-imidazol-4-one] the value was more than 1 µM; for `CN1C(=O)C(c2ccc(F)c(O)c2)(c2ccc(OC(F)F)c(Cl)c2)N=C1N` (centres unmarked) [Example 95, 2-Amino-5-[3-chloro-4-(difluoromethoxy)phenyl]-5-(4-fluoro-3-hydroxyphenyl)-3-methyl-3,5-dihydro-4H-imidazol-4-one], 0.11 to 1 µM.

`Cc1cc(C2(c3ccc(F)c(Br)c3)N=C(N)N(C)C2=O)ccc1OC(F)F` (centres unmarked) [Example 31] came in with an IC50 (BACE1 IC50 μM) of 0.11 to 1 µM. For the molecule `CCc1cc([C@@]2(c3ccc(F)c(C#CCF)c3)N=C(N)N(C)C2=O)ccc1OC(F)F` [Example 163, (5S)-2-Amino-5-[4-(difluoromethoxy)-3-ethylphenyl]-5-[4-fluoro-3-(3-fluoroprop-1-yn-1-yl)phenyl]-3-methyl-3,5-dihydro-4H-imidazol-4-one], the IC50 (read-out: BACE1 IC50) lay in the range of 0.11 to 1 µM. For the molecule `Cc1cc(C2(c3cccc(OCC(F)F)c3)N=C(N)N(C)C2=O)ccc1OC(F)F` (centres unmarked) [Example 43, 2-Amino-5-[3-(2,2-difluoroethoxy)phenyl]-5-[4-(difluoromethoxy)-3-methylphenyl]-3-methyl-3,5-dihydro-4H-imidazol-4-one], the IC50 (read-out: BACE1 IC50) is less than 0.1 µM. Same read-out and setting: the result for `CN1C(=O)[C@](c2ccc(F)c(C#CC3CC3)c2)(c2ccc(OC(F)F)c(CCF)c2)N=C1N` (single isomer, unassigned) [Example 93] reads less than 0.1 µM; that for `CN1C(=O)C(c2ccc(OC(F)F)c(Cl)c2)(c2ccc(F)c(OCCF)c2)N=C1N` (centres unmarked) [Example 99, 2-Amino-5-[3-chloro-4-(difluoromethoxy)phenyl]-5-[4-fluoro-3-(2-fluoroethoxy)phenyl]-3-methyl-3,5-dihydro-4H-imidazol-4-one], less than 0.1 µM. Same read-out and setting: the result for `CCc1cc([C@@]2(c3ccc(F)c(OCCC(F)F)c3)N=C(N)N(C)C2=O)ccc1OC(F)F` [Example 135, (5S)-2-Amino-5-[4-(difluoromethoxy)-3-ethylphenyl]-5-[3-(3,3-difluoropropoxy)-4-fluorophenyl]-3-methyl-3,5-dihydro-4H-imidazol-4-one] reads more than 1 µM. The same measure, in the same setting: the result for `CCc1cc([C@]2(c3ccc(F)c(OCC(F)F)c3)N=C(N)N(C)C2=O)ccc1OC(F)F` [Example 119, (5R)-2-Amino-5-[3-(2,2-difluoroethoxy)-4-fluorophenyl]-5-[4-(difluoromethoxy)-3-ethylphenyl]-3-methyl-3,5-dihydro-4H-imidazol-4-one] reads less than 0.1 µM.

Consider `CN1C(=O)C(c2cccc(OCC(F)F)c2)(c2ccc(OC(F)F)c(Cl)c2)N=C1N` (centres unmarked) [Example 38, 2-Amino-5-[3-chloro-4-(difluoromethoxy)phenyl]-5-[3-(2,2-difluoroethoxy)phenyl]-3-methyl-3,5-dihydro-4H-imidazol-4-one], for which the IC50 (read-out: BACE1 IC50) was less than 0.1 µM.

Consider `CCC#Cc1cc([C@@]2(c3ccc(OC(F)F)c(C)c3)N=C(N)N(C)C2=O)ccc1F` (single isomer, unassigned) [Example 83], for which the IC50 (read-out: BACE1 IC50) is less than 0.1 µM. The same measure, in the same setting: for `Cc1cc(C2(c3ccc(OC(F)F)c(C)c3)N=C(N)N(C)C2=O)ccc1OC(F)F` [Example 71, 2-Amino-5,5-bis-[4-(difluoromethoxy)-3-methylphenyl]-3-methyl-3,5-dihydro-4H-imidazol-4-one] the value was 0.11 to 1 µM; for `CCCOc1cc(C2(c3ccc(OC(F)F)c(C)c3)N=C(N)N(C)C2=O)ccc1F` (stereo in doubt) [Example 116, (5S)-2-Amino-5-[4-(difluoromethoxy)-3-methylphenyl]-5-(4-fluoro-3-propoxyphenyl)-3-methyl-3,5-dihydro-4H-imidazol-4-one], less than 0.1 µM. The same measure, in the same setting: for `COCC/C=C/c1cccc(C2(c3ccc(OC(F)F)c(C)c3)N=C(N)N(C)C2=O)c1` (centres unmarked) [Example 64, 2-Amino-5-[4-(difluoromethoxy)-3-methylphenyl]-5-[3-((E)-4-methoxybut-1-enyl)phenyl]-3-methyl-3,5-dihydro-4H-imidazol-4-one] the value was less than 0.1 µM. `CC(C)c1cc(C2(c3ccccc3)N=C(N)N(C)C2=O)ccc1OC(F)F` (centres unmarked) [Example 9, 2-Amino-5-[4-(difluoromethoxy)-3-isopropylphenyl]-3-methyl-5-phenyl-3,5-dihydro-4H-imidazol-4-one]: the IC50 (read-out: BACE1 IC50 μM) fell in the range of 0.11 to 1 µM. With `Cc1cc(C2(c3ccc(F)c(OCCF)c3)N=C(N)N(C)C2=O)ccc1OC(F)F` (centres unmarked) [Example 109, 2-Amino-5-[4-(difluoromethoxy)-3-methylphenyl]-5-[4-fluoro-3-(2-fluoroethoxy)phenyl]-3-methyl-3,5-dihydro-4H-imidazol-4-one], the IC50 (read-out: BACE1 IC50) is less than 0.1 µM.

For the molecule `Cc1cc([C@@]2(c3cccc(C#CCCF)c3)N=C(N)N(C)C2=O)ccc1OC(F)F` [Example 204, (5R)-2-amino-5-[4-(difluoromethoxy)-3-methylphenyl]-5-[3-(4-fluorobut-1-yn-1-yl)phenyl]-3-methyl-3,5-dihydro-4H-imidazol-4-one], the IC50 (read-out: BACE1 IC50) was more than 1 µM. Consider `CN1C(=O)C(c2cccc(C#CCF)c2)(c2ccc(OC(F)F)c(C3CC3)c2)N=C1N` (centres unmarked) [Example 209, 2-amino-5-[3-cyclopropyl-4-(difluoromethoxy)phenyl]-5-[3-(3-fluoroprop-1-yn-1-yl)phenyl]-3-methyl-3,5-dihydro-4H-imidazol-4-one], for which the IC50 (read-out: BACE1 IC50) was less than 0.1 µM. Still for that read-out and setting: the result for `CCc1cc(C2(c3ccc(F)c(C#CCC(C)C)c3)N=C(N)N(C)C2=O)ccc1OC(F)F` (centres unmarked) [Example 149, 2-Amino-5-[4-(difluoromethoxy)-3-ethylphenyl]-5-[4-fluoro-3-(4-methylpent-1-yn-1-yl)phenyl]-3-methyl-3,5-dihydro-4H-imidazol-4-one] reads 0.11 to 1 µM; that for `COCC#Cc1cccc([C@@]2(c3ccc(OC(F)F)c(C4CC4)c3)N=C(N)N(C)C2=O)c1` (single isomer, unassigned) [Example 181], less than 0.1 µM.
